Target: T1, zebrafish CPA6 (zCPA6) (Danio rerio, UniProt E7F2H8)
T1 construct: full-length cDNA in pcDNA3.1, untagged, expressed in HEK293T cells; mature 65 kDa with EGFP
T1 sequence (E7F2H8 133-442): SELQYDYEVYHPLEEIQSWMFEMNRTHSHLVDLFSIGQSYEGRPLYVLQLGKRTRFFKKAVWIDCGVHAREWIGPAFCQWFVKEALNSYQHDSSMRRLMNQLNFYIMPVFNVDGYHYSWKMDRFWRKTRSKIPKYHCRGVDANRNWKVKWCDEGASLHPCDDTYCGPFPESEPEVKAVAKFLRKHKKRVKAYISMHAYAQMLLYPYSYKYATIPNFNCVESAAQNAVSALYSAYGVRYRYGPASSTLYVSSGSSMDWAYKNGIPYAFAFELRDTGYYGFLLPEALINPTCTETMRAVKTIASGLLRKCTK
Assay: decrease in absorbance at […] nm, ECM-bound enzyme of transfected HEK293T cells against untransfected wells
Type: biochemical
Details: 0.5 mM substrate, 50 mM Tris-HCl pH 7.5, 150 mM NaCl, 37 °C; untagged enzyme

| SMILES | decrease in absorbance at 336 nm, ECM-bound enzyme of transfected HEK293T cells |
| --- | --- |
| O=C(C=Cc1ccco1)N[C@@H](Cc1ccccc1)C(=O)N[C@@H](Cc1ccccc1)C(=O)O [fa-FF] | fa-FF and fa–RL were most rapidly cleaved |
| CC(C)C[C@H](NC(=O)[C@H](CCCNC(=N)N)NC(=O)C=Cc1ccco1)C(=O)O [fa-RL, fa–RL] | fa-FF and fa–RL were most rapidly cleaved |
